Experiments:
α1b-AR = molecular target: T1, α1b-AR (Homo sapiens, UniProt P35368); assay: α1-Adrenergic Receptor Binding Assay (125I-HEAT radio-ligand), α1b subtype; conditions: membranes of COS-7 cells transfected with α1b subtype; 125I-HEAT 50 pM; rt 1 hr
T1 construct: expressed in transfected cells; host or cells: COS-7 cells (membranes)
T1 sequence (P35368 1-520): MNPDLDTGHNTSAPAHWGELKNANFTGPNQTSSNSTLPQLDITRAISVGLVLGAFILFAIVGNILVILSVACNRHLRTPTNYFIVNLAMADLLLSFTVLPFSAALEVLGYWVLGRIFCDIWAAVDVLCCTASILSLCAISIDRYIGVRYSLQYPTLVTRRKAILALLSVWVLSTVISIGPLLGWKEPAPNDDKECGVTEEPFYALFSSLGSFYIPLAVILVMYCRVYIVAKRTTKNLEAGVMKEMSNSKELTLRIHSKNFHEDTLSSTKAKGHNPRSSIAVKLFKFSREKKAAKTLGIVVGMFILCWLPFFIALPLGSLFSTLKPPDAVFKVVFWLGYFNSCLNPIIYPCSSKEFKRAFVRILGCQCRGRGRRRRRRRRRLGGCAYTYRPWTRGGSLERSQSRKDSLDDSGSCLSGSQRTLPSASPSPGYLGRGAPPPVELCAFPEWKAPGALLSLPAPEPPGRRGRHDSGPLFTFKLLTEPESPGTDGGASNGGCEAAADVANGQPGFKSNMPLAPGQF
Description: (§1) α1-Adrenergic Receptor Binding Assay
(§2) Preparation of COS Cell Membranes
(§3) Membranes were prepared from COS-7 cells (African Green monkey kidney SV40-transformed cells) that had been transfected with one of the three α1-AR subtypes (Genbank accession number for the α1a subtype: AF013261; Genbank accession number for the α1b subtype: NM000679; Genbank accession number for the α1d subtype: NM000678) using the following method: COS cells from ten 100 mm tissue culture plates were scraped into a 5 mL volume of TE (a mixture of 50 mM Tris-HCl, 5 mM EDTA, pH 7.4). […] The disrupted cells were centrifuged at 1000×g min at 4° C. Supernatants were centrifuged at 34,500×g for 20 min at 4° C. The membrane pellets were suspended in a 2 mL volume of TNE (a mixture of 50 mM Tris-HCl, 5 mM EDTA and 150 mM NaCl at pH 7.4). An aliquot of the membrane suspension was stored at −70° C. until use. The protein concentration was determined using the BioRad “DC” protein assay kit following membrane solubilization with Triton X-100.
(§4) Radio-Ligand Binding Assay
(§5) Triplicate determinations of radio-ligand binding in the presence of increasing concentrations of testing compound were made. The reagents were added to 96-well polypropylene plate wells. […] The plate was incubated at rt for 1 hr. The contents of the wells were filtered through a glass filter (type C) (GF/C) membrane Unifilter plate (Packard Instruments) using the Packard Filtermate cell harvester. The filter plates were dried in a vacuum oven for 30 min at 40° C. 25 μL Microscint 20 liquid scintillation fluid (Packard Instruments) was added to each well. The radioactive content was analyzed in the TopCount microplate scintillation counter (Packard Instruments).

α1a-AR = molecular target: T2, α1a-AR (Homo sapiens, UniProt P35348); assay: α1-Adrenergic Receptor Binding Assay (125I-HEAT radio-ligand), α1a subtype; conditions: membranes of COS-7 cells transfected with α1a subtype; 125I-HEAT 50 pM; rt 1 hr
T2 construct: expressed in transfected cells; host or cells: COS-7 cells (membranes)
T2 sequence (P35348 1-455 isoform P35348-4): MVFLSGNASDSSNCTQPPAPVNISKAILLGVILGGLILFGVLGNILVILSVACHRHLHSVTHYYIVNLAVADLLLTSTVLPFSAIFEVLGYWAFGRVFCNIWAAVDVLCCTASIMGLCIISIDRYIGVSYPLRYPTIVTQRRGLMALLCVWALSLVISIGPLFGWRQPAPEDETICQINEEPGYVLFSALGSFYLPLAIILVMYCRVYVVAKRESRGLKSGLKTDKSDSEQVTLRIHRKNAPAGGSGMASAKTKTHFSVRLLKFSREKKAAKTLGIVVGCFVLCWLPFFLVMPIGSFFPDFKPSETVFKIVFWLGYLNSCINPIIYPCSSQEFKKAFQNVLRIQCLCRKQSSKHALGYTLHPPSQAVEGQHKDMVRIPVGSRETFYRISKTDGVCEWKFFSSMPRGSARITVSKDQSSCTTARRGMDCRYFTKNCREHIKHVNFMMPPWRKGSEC
Description: as §1, §2, §3, §4, §5

α1d-AR = molecular target: T3, α1d-AR (Homo sapiens, UniProt P25100); assay: α1-Adrenergic Receptor Binding Assay (125I-HEAT radio-ligand), α1d subtype; conditions: membranes of COS-7 cells transfected with α1d subtype; 125I-HEAT 50 pM; rt 1 hr
T3 construct: expressed in transfected cells; host or cells: COS-7 cells (membranes)
T3 sequence (P25100 1-572): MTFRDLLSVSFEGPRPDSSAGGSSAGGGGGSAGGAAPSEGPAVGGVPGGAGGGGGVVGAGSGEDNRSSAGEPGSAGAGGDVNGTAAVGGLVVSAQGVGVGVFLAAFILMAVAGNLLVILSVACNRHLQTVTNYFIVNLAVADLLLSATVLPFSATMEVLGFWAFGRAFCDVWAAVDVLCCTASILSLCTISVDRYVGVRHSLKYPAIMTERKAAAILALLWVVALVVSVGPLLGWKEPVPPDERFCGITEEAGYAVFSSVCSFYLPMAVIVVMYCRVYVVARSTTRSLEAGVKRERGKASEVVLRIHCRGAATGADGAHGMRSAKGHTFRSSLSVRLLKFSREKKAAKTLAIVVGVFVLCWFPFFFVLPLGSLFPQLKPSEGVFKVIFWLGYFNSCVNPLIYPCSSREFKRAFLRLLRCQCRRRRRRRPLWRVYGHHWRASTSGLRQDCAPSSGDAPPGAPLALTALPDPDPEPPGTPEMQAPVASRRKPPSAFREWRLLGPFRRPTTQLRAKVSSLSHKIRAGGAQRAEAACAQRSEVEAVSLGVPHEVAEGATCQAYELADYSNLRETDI
Description: as §1, §2, §3, §4, §5

Compound | Ki (α1b-AR) | Ki (α1a-AR) | Ki (α1d-AR)
CC(C)Oc1ccccc1N1CCN([C@H]2CC[C@H](NC(=O)Nc3ccc(F)c(F)c3)CC2)CC1 [Cpd 8, 1-(3,4-difluoro-phenyl)-r-3-{t-4-[4-(2-isopropoxy-phenyl)-piperazin-1-yl]-cyclohexyl}-urea] | 74 nM | 3 nM | 
CC(C)Oc1ccccc1N1CCN([C@H]2CC[C@H](NC(=O)Nc3ccccc3Cl)CC2)CC1 [Cpd 10, 1-(2-chloro-phenyl)-r-3-{t-4-[4-(2-isopropoxy-phenyl)-piperazin-1-yl]-cyclohexyl}-urea] | 39 nM | 11.4 nM | 3 nM
CC(C)Oc1ccccc1N1CCN([C@H]2CC[C@@H](NC(=O)Nc3c(Cl)cccc3Cl)CC2)CC1 [Cpd 13, 1-(2,6-dichloro-phenyl)-r-3-{c-4-[4-(2-isopropoxy-phenyl)-piperazin-1-yl]-cyclohexyl}-urea] |  | 33.4 nM | 
COc1ccc(Cl)cc1NC(=O)N[C@H]1CC[C@@H](N2CCN(c3ccccc3OC(C)C)CC2)CC1 [Cpd 18, 1-(5-chloro-2-methoxy-phenyl)-r-3-{c-4-[4-(2-isopropoxy-phenyl)-piperazin-1-yl]-cyclohexyl}-urea] |  | 101 nM | 64 nM
COc1ccc(C)cc1NC(=O)N[C@H]1CC[C@@H](N2CCN(c3ccccc3OC(C)C)CC2)CC1 [Cpd 33, r-1-{c-4-[4-(2-isopropoxy-phenyl)-piperazin-1-yl]-cyclohexyl}-3-(2-methoxy-5-methyl-phenyl)-urea] | 168 nM | 37 nM | 6.5 nM
CC(C)Oc1ccccc1N1CCN([C@H]2CC[C@H](NC(=O)Nc3cccc(Cl)c3)CC2)CC1 [Cpd 12, 1-(3-chloro-phenyl)-r-3-{t-4-[4-(2-isopropoxy-phenyl)-piperazin-1-yl]-cyclohexyl}-urea] |  | 5.1 nM | 
CC(C)Oc1ccccc1N1CCN([C@H]2CC[C@H](NC(=O)Nc3c(Cl)cccc3Cl)CC2)CC1 [Cpd 14, 1-(2,6-dichloro-phenyl)-r-3-{t-4-[4-(2-isopropoxy-phenyl)-piperazin-1-yl]-cyclohexyl}-urea] |  | 6.2 nM | 
CC(C)Oc1ccccc1N1CCN([C@H]2CC[C@@H](NC(=O)Nc3c(F)cccc3F)CC2)CC1 [Cpd 26, 1-(2,6-difluoro-phenyl)-r-3-{c-4-[4-(2-isopropoxy-phenyl)-piperazin-1-yl]-cyclohexyl}-urea] | 299 nM | 51.6 nM | 
CC(C)Oc1ccccc1N1CCN([C@H]2CC[C@@H](NC(=O)Nc3ccc(OC(F)(F)F)cc3)CC2)CC1 [Cpd 31, r-1-{c-4-[4-(2-isopropoxy-phenyl)-piperazin-1-yl]-cyclohexyl}-3-(4-trifluoromethoxy-phenyl)-urea] | 277 nM | 48 nM | 4.5 nM
CC(C)Oc1ccccc1N1CCN([C@H]2CC[C@H](NC(=O)Nc3c(F)cccc3F)CC2)CC1 [Cpd 27, 1-(2,6-difluoro-phenyl)-r-3-{t-4-[4-(2-isopropoxy-phenyl)-piperazin-1-yl]-cyclohexyl}-urea] | 35.6 nM | 5.3 nM | 
COc1ccccc1NC(=O)N[C@H]1CC[C@@H](N2CCN(c3ccccc3OC(C)C)CC2)CC1 [Cpd 1, 1-{c-4-[4-(2-isopropoxy-phenyl)-piperazin-1-yl]-cyclohexyl}-r-3-(2-methoxy-phenyl)-urea] | 223 nM | 155 nM | 
CC(C)Oc1ccccc1N1CCN([C@H]2CC[C@H](NC(=O)Nc3c(Cl)cc(Cl)cc3Cl)CC2)CC1 [Cpd 16, r-1-{t-4-[4-(2-isopropoxy-phenyl)-piperazin-1-yl]-cyclohexyl}-3-(2,4,6-trichloro-phenyl)-urea] | 112 nM | 6.4 nM | 3.6 nM
CC(C)Oc1ccccc1N1CCN([C@H]2CC[C@@H](NC(=O)Nc3c(Cl)cc(Cl)cc3Cl)CC2)CC1 [Cpd 15, r-1-{c-4-[4-(2-isopropoxy-phenyl)-piperazin-1-yl]-cyclohexyl}-3-(2,4,6-trichloro-phenyl)-urea] | 483 nM | 51.2 nM | 25.3 nM
COc1ccc(NC(=O)N[C@H]2CC[C@H](N3CCN(c4ccccc4OC(C)C)CC3)CC2)c(OC)c1 [Cpd 4, 1-(2,4-dimethoxy-phenyl)-r-3-{t-4-[4-(2-isopropoxy-phenyl)-piperazin-1-yl]-cyclohexyl}-urea] |  | 74 nM | 20 nM
COc1ccccc1NC(=O)N[C@H]1CC[C@H](N2CCN(c3ccccc3OC(C)C)CC2)CC1 [Cpd 2, 1-{t-4-[4-(2-isopropoxy-phenyl)-piperazin-1-yl]-cyclohexyl}-r-3-(2-methoxy-phenyl)-urea] | 107 nM | 38 nM | 
CC(C)Oc1ccccc1N1CCN([C@H]2CC[C@@H](NC(=O)Nc3cccc(Cl)c3)CC2)CC1 [Cpd 11, 1-(3-chloro-phenyl)-r-3-{c-4-[4-(2-isopropoxy-phenyl)-piperazin-1-yl]-cyclohexyl}-urea] |  | 22.2 nM | 
CC(C)Oc1ccccc1N1CCN([C@H]2CC[C@@H](NC(=O)Nc3ccc(F)c(F)c3)CC2)CC1 [Cpd 7, 1-(3,4-difluoro-phenyl)-r-3-{c-4-[4-(2-isopropoxy-phenyl)-piperazin-1-yl]-cyclohexyl}-urea] | 963 nM | 50.6 nM | 
CC(C)Oc1ccccc1N1CCN([C@H]2CC[C@@H](NC(=O)Nc3ccc(F)cc3F)CC2)CC1 [Cpd 22, 1-(2,4-difluoro-phenyl)-r-3-{c-4-[4-(2-isopropoxy-phenyl)-piperazin-1-yl]-cyclohexyl}-urea] | 475 nM | 14 nM | 
COc1ccc(Cl)cc1NC(=O)N[C@H]1CC[C@H](N2CCN(c3ccccc3OC(C)C)CC2)CC1 [Cpd 19, 1-(5-chloro-2-methoxy-phenyl)-r-3-{t-4-[4-(2-isopropoxy-phenyl)-piperazin-1-yl]-cyclohexyl}-urea] |  | 34 nM | 2.7 nM
CC(C)Oc1ccccc1N1CCN([C@H]2CC[C@H](NC(=O)Nc3ccc(F)cc3F)CC2)CC1 [Cpd 23, 1-(2,4-difluoro-phenyl)-r-3-{t-4-[4-(2-isopropoxy-phenyl)-piperazin-1-yl]-cyclohexyl}-urea] | 76 nM | 3.1 nM | 
COc1ccc(NC(=O)N[C@H]2CC[C@@H](N3CCN(c4ccccc4OC(C)C)CC3)CC2)c(OC)c1 [Cpd 3, 1-(2,4-dimethoxy-phenyl)-r-3-{c-4-[4-(2-isopropoxy-phenyl)-piperazin-1-yl]-cyclohexyl}-urea] |  | 110 nM | 92 nM

— patent US7517885B2, “Substituted [4-(4-phenyl-piperazin-1-yl)-cyclohexyl]-urea compounds” (Janssen Pharmaceutica N.V., priority 2005, dated 2009)
